The results in this text go back to ChEMBL document CHEMBL5620378, “Structure-based discovery of novel cruzain inhibitors with distinct trypanocidal activity profiles” (Eur J Med Chem, 2023).

Data set [1] has as its target Cruzipain (Trypanosoma cruzi) (UniProt P25779). Briefly: Inhibition of C-terminal truncated Trypanosoma cruzi Tulahuen Cruzain using Z-FR-AMC as substrate at 100 uM measured for 5 mins by fluorescence based analysis.
The test system of data set [2] is Trypanosoma cruzi. Kind of data set: Trypanocidal activity against epimastigotes form of Trypanosoma cruzi Y assessed as decrease in parasite growth at 200 uM pretreated for 1 hr followed by drug wash-out and measured after 72 hrs by optical microscopic analysis. It counts as functional.
In data set [3] the test system is Trypanosoma cruzi. Briefly: Trypanocidal activity against epimastigotes form of Trypanosoma cruzi Y assessed as decrease in parasite growth at 25 uM measured after 72 hrs by optical microscopic analysis. It counts as functional.
For data set [4], the target named is T1, Cruzipain (Trypanosoma cruzi, UniProt P25779). Briefly: Competitive inhibition of C-terminal truncated Trypanosoma cruzi Tulahuen Cruzain using Z-FR-AMC as substrate by Michaelis-menten based analysis.
Data set [5] concerns the target Cruzipain (Trypanosoma cruzi) (UniProt P25779). Briefly: Competitive inhibition of C-terminal truncated Trypanosoma cruzi Tulahuen Cruzain assessed as constant Vmax using Z-FR-AMC as substrate by Lineweaver-Burk plot analysis.
Data set [6] has the same target. Kind of data set: Ratio of IC50 for inhibition of C-terminal truncated Trypanosoma cruzi Tulahuen Cruzain in presence of different concentrations of Triton to IC50 for inhibition of C-terminal truncated Trypanosoma cruzi Tulahuen Cruzain.
Data set [7] has as its system Trypanosoma cruzi. Briefly: Trypanocidal activity against trypomastigote form of Trypanosoma cruzi Y assessed as reduction in parasite load at 6.25 uM incubated for 1 hr. It counts as functional.
Data set [8] concerns Peritoneal macrophage. Briefly: Cytotoxicity against C57BL/6 mouse Peritoneal macrophages assessed as cell damage at 0.19 to 400 uM measured after 24 hrs by LDH assay. It counts as toxicity, cell-based. The note with it: dose 0.19-400 µM.
In the next data set the target is Cathepsin L (Homo sapiens, UniProt P07711). Briefly: Inhibition of human recombinant Cathepsin L (18 to 333 residues) assessed as residual activity using Z-FR-AMC as substrate at 100 uM measured for 5 mins by fluorescence based analysis. The note with it: recombinant human Cathepsin L (residues 18 to 333), probe Z-FR-AMC, read-out: Activity.
Data set [9] relates to Peritoneal macrophage. Briefly: Effect on NO release in C57BL/6 mouse Peritoneal macrophages infected with Trypanosoma cruzi Y measured at 11 days post-infection by Griess reagent based assay. The note with it: time 11.0 day. It counts as functional, cell-based. (Griess reagent forms a coloured azo dye with nitrite.)
The subject of data set [10] is Trypanosoma cruzi. Briefly: Trypanocidal activity against Trypanosoma cruzi Y infected in C57BL/6 mouse Peritoneal macrophages assessed as reduction in trypomastigotes release at 100 uM measured on day 5 post-infection. It counts as functional. The settings on record: Peritoneal macrophage, 120 h, time 5 day.
Data set [11] concerns the target Cruzipain (Trypanosoma cruzi) (UniProt P25779). Kind of data set: Ratio of IC50 for inhibition of C-terminal truncated Trypanosoma cruzi Tulahuen Cruzain in presence of 0% Triton and BSA to IC50 for inhibition of C-terminal truncated Trypanosoma cruzi Tulahuen Cruzain.
Data set [12] deals with Trypanosoma cruzi. Kind of data set: Trypanocidal activity against epimastigotes form of Trypanosoma cruzi Y assessed as parasite viability by MTT assay. It counts as functional, organism-based. For orientation: Formazan colour is commonly taken as a measure of viable cells.
Data set [13] addresses T1, Cruzipain. Briefly: Inhibition of C-terminal truncated Trypanosoma cruzi Tulahuen Cruzain using Z-FR-AMC as substrate measured for 5 mins by fluorescence based analysis.
Data set [14] addresses Cruzipain (Trypanosoma cruzi) (UniProt P25779). Briefly: Competitive inhibition of C-terminal truncated Trypanosoma cruzi Tulahuen Cruzain assessed as increase in Km(app) using Z-FR-AMC as substrate by Michaelis-menten based analysis.
The test system of data set [15] is Trypanosoma cruzi. Briefly: Trypanocidal activity against Trypanosoma cruzi Y infected in C57BL/6 mouse Peritoneal macrophages assessed as reduction in trypomastigotes release at 6.25 uM measured on day 5 post-infection. It counts as functional. The settings on record: Peritoneal macrophage, 120 h, time 5 day.
In data set [16] the test system is Peritoneal macrophage. Kind of data set: Cytotoxicity against C57BL/6 mouse Peritoneal macrophages infected with Trypanosoma cruzi Y assessed as cell damage at 0.19 to 400 uM measured after 24 hrs by LDH assay. It counts as toxicity, cell-based. The settings on record: dose 0.19-400 µM.
Data set [17] addresses Cruzipain (Trypanosoma cruzi) (UniProt P25779). Briefly: Inhibition of C-terminal truncated Trypanosoma cruzi Tulahuen Cruzain using Z-FR-AMC as substrate at 100 uM preincubated with enzyme for 10 mins and measured for 5 mins by fluorescence based analysis. The settings on record: time 15.0 min.
Data set [18] relates to Trypanosoma cruzi. Briefly: Trypanocidal activity against trypomastigote form of Trypanosoma cruzi Y infected in C57BL/6 mouse Peritoneal macrophages assessed as reduction in intracellular parasite infection at 0.19 to 400 uM preincubated with parasite for 1 hr followed by infection and measured at 3 to 11 days post-infection. It counts as functional, organism-based. The settings on record: Peritoneal macrophage, dose 0.19-400 µM, time 3-11 day.

Data set [19] relates to Trypanosoma cruzi. Briefly: Trypanocidal activity against epimastigotes form of Trypanosoma cruzi Y assessed as decrease in parasite growth at 400 uM measured after 72 hrs by optical microscopic analysis. It counts as functional.

Calls of active or inactive are those of the source. The calls are words filed in the database; no cut-off is given here.

T1 sequence (P25779 whole entry, the tested form may be a part): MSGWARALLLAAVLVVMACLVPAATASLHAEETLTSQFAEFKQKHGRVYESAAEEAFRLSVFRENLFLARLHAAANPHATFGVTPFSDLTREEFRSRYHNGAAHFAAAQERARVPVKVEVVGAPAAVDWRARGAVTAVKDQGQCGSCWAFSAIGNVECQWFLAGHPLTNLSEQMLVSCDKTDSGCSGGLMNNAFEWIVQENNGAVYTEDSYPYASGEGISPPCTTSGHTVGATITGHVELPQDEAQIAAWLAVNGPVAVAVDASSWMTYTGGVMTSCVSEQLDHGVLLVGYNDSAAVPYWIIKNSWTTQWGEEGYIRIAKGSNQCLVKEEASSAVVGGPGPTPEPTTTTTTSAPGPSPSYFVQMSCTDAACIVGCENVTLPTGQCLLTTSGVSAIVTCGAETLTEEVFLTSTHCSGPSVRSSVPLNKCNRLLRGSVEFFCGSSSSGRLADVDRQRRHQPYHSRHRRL
Chain of Cruzipain (Trypanosoma cruzi) (P25779 123-467 limits assumed): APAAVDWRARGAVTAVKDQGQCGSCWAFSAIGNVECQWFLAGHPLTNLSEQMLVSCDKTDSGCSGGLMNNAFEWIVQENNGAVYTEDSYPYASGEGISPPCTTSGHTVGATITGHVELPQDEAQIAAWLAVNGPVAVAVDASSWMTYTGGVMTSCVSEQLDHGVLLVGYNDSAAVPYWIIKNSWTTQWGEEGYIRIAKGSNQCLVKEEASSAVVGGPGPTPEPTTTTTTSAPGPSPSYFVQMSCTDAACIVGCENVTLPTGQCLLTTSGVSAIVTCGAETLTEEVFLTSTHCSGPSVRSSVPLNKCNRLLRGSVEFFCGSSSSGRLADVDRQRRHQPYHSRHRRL
Chain of Cathepsin L (P07711 whole entry, the tested form may be a part): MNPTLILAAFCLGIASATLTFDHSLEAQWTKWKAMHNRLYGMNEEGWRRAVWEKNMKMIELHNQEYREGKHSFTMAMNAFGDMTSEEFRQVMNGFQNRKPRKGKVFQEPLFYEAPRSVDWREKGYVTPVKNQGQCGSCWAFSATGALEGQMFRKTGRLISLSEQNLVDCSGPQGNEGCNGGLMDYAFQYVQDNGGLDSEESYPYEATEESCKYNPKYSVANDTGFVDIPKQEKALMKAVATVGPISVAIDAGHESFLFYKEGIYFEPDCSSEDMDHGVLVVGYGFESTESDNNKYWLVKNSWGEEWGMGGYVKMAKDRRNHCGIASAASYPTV

Usually inhibition stands for the drop in the measured response relative to a control, in per cent. Regarding `Cc1ccc(CNC(=O)C2Cc3ccc(F)cc3C(=O)O2)o1` (configuration not stated), in data set [1], the inhibition stood at 13%.

In data set [1], `Cc1ccc(CNC(=O)[C@@H]2Cc3ccccc3CN2)o1` returned an inhibition of 8%.

In turn, `Cc1ccc(CNC(=O)[C@H]2Cc3ccccc3CN2)o1` registered an inhibition in data set [1] of 4%.

In turn, `O=C(NCc1ccccn1)C1Cc2ccccc2CN1` (configuration not stated) registered an inhibition in data set [1] of 7%.

For `O=C(NCc1ccco1)[C@@H]1Cc2ccccc2CO1`, the inhibition in [1] stood at 25%.

As a reminder, the Ki is a measure of affinity in units of concentration, obtained from inhibition or displacement. A low value points to tighter binding. A word on the IC50: it is the concentration at which inhibition is half-maximal. Read a high IC50 as a need for much substance. On to `O=C(NCc1ccco1)C1Cc2ccccc2CN1` (racemic), for which, in the data set on Trypanosoma cruzi [2], the inhibition at 200 µM turned out to be 20%. Besides, the inhibition at 25 µM with Trypanosoma cruzi [3] was determined as 43%. Moreover, the affinity at Cruzipain [4] corresponds to a Ki of 4.6 µM. Besides, the inhibition entry in [5] and in [14] was “Active” in each case. For the same compound, the Ratio IC50 in [6] turned out to be 3; in data set [11], 7. Besides, the figures for the inhibition at 6.25 µM with Trypanosoma cruzi [7] and in the data set with Trypanosoma cruzi [15] were 13% and 18%, respectively. Besides, the Activity entry with Peritoneal macrophage [8] and with Peritoneal macrophage [16] was “Non-Toxic” each time. The inhibition in data set [1] and in data set [17] was 100% each time. The activity at 5 min, 100 µM at Cathepsin L stood at 51%. The Activity entry in the data set on Peritoneal macrophage [9] and in the data set on Trypanosoma cruzi [12] was “inactive” in each case. Also, in the data set on Trypanosoma cruzi [10], the inhibition at 100 µM amounted to 25%. For the same compound, it took 3 µM to reach half-maximal inhibition against Cruzipain [13] (IC50).

Consider `O=C(NCc1ccco1)C1Cc2c(F)cccc2CN1` (racemic), for which, in the data set with Trypanosoma cruzi [2], the inhibition at 200 µM came to 12%. The inhibition at 25 µM in the data set with Trypanosoma cruzi [3] turned out to be 6%. The Ki on Cruzipain [4] was determined as 27 µM. For the same compound, the inhibition entry in data set [5] and in [14] was “Active” throughout. The Ratio IC50 in data set [6] worked out at 6; in data set [11] it was 10. The inhibition at 6.25 µM amounted to 39% in the data set with Trypanosoma cruzi [7] and 51% in the data set with Trypanosoma cruzi [15]. Moreover, the Activity result in the data set on Peritoneal macrophage [8] and in the data set with Peritoneal macrophage [16] was “Non-Toxic” each time. In data set [1], this compound gave an inhibition of 100%. In the data set with Trypanosoma cruzi [18], the Activity result was “Active”. The activity at 5 min, 100 µM at Cathepsin L is 65%. Further, the Activity entry with Peritoneal macrophage [9] and in the data set on Trypanosoma cruzi [12] was “inactive” each time. In the data set on Trypanosoma cruzi [19], the inhibition at 400 µM worked out at 23%. Besides, the inhibition at 100 µM with Trypanosoma cruzi [10] was determined as 74%. At Cruzipain [13], the IC50 turned out to be 26 µM.
